We go through 9 molecules from patent US20260022142A1, “MACROCYCLIC IMMUNOMODULATORS” (Bristol-Myers Squibb Company, priority 2022, published 2026).

Numbered stars: 1 amine (or outer) side, 2 acyl side, 3 side chain; on linkers, the order of the positions; unused ones are H or OH. Bridge positions count the residues as written; N and C are the ends. Square brackets hold non-standard residues; d marks the D form. Peptide text beside a SMILES is read from it. * marks the point of attachment. ξ: configuration not given here. Phe(3-CF3) = N[C@@H](Cc1cccc(C(F)(F)F)c1)C(=O)O; Phe(4-CONH2) = NC(=O)c1ccc(C[C@H](N)C(=O)O)cc1; Phe(4-COOH) = N[C@@H](Cc1ccc(C(=O)O)cc1)C(=O)O; X9 = O=C([C@H](Cc1cc(F)c(F)cc1F)N[*:1])[*:2]; Bip = N[C@@H](Cc1ccc(-c2ccccc2)cc1)C(=O)O; NH(CH2)14COOH = O=C(O)CCCCCCCCCCCCCCN*; Phe(3-Me) = Cc1cccc(C[C@H](N)C(=O)O)c1; Val(3-OH) = CC(C)(O)[C@H](N)C(=O)O; 4Pal = N[C@@H](Cc1ccncc1)C(=O)O; Cha = N[C@@H](CC1CCCCC1)C(=O)O; Cit = NC(=O)NCCC[C@H](N)C(=O)O; Gly(cPr) = N[C@H](C(=O)O)C1CC1; Thr(3ξ) = CC(O)[C@H](N)C(=O)O; Carboxymethyl = O=C(O)C*; Orn = NCCC[C@H](N)C(=O)O; Pra = C#CC[C@H](N)C(=O)O; Aun = NCCCCCCCCCCC(=O)O; Dab = NCC[C@H](N)C(=O)O; Dap = NC[C@H](N)C(=O)O; AEEA = NCCOCCOCC(=O)O; ξC = NC(CS)C(=O)O

For this assay, the target named is T1, PD-1/PD-L1 interaction (PE-labeled human PD-L1-Ig binding to Jurkat cell line over-expressing human PD-1) (Homo sapiens, UniProt Q15116).
T1 construct: expressed in transfected cells; host or cells: Jurkat
T1 sequence (Q15116 25-288): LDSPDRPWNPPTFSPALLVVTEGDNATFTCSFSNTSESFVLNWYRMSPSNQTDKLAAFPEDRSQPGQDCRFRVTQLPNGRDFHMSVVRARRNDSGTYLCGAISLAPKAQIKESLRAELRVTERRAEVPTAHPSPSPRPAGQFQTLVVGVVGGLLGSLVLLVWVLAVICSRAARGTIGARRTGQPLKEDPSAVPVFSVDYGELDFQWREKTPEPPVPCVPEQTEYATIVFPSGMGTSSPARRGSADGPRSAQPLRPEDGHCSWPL
Nature of the assay: Jurkat-PD-1 Cell Binding High-Content Screening Assay (CBA). The note with it: Jurkat cell line over-expressing human PD-1; PE-labeled PD-L1-Ig 20 nM final; read-out: Jurkat hPD1-PDL1 IC50. The format is cell-based. A digest of the protocol:
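Binding of fluorescent PD-L1-Ig (phycoerythrin on Ig tag, 20 nM final, 1 h) measured by high-content imaging of fixed, Hoechst-counterstained Jurkat-hPD-1 cells. Compound added 2 h at 37° C beforehand, in DMEM with 10% fetal calf serum.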
One may read the IC50 as the midpoint of a concentration-inhibition curve. `Cc1cccc(C[C@@H]2NC(=O)[C@H](CC(=O)O)NC(=O)[C@H](Cc3ccc(OCC(=O)O)cc3)NC(=O)[C@H](CC(N)=O)NC(=O)CSC[C@@H](C(=O)N[C@@H](CCN)C(=O)NCCCCCCCCCCC(=O)O)NC(=O)[C@H](CCCNC(N)=O)NC(=O)[C@H](C(C)C)NC(=O)[C@H](CC3CCCCC3)NC(=O)[C@H](CCN)NC(=O)[C@@H](CC(C)C)NC(=O)[C@H](CCCN)NC(=O)[C@H](Cc3ccc(O)cc3)NC(=O)[C@H](Cc3ccc(-c4ccccc4)cc3)NC(=O)[C@H](C(C)C)NC2=O)c1` [Compound 3378] ({CH2CO}-NY(Carboxymethyl)D[Phe(3-Me)]V[Bip]Y[Orn][dL][Dab][Cha]V[Cit]C[Dab][Aun]-OH; thioether N-14): the IC50 amounted to 18.1 nM.
With `CC(=O)NCCCC[C@@H]1NC(=O)[C@H](Cc2ccc(-c3ccccc3)cc2)NC(=O)[C@H](Cc2ccccc2)NC(=O)[C@H](Cc2cccc(C)c2)NC(=O)[C@H](CC(=O)O)NC(=O)[C@H](Cc2ccc(OCC(=O)O)cc2)NC(=O)[C@H](C(C)O)NC(=O)CSC[C@@H](C(=O)N[C@@H](CCN)C(=O)NCCCCCCCCCCC(=O)O)NC(=O)[C@H](C(C)O)NC(=O)[C@H](C(C)C)NC(=O)[C@H](CC2CCCCC2)NC(=O)[C@H](CCN)NC(=O)[C@@H](CC(C)C)NC(=O)[C@H](CCCNC(N)=O)NC1=O` (stereo partly drawn) [Compound 3466] ({CH2CO}-[Thr(3ξ)]Y(Carboxymethyl)D[Phe(3-Me)]F[Bip]K(Ac)[Cit][dL][Dab][Cha]V[Thr(3ξ)]C[Dab][Aun]-OH; thioether N-14) the figure was 19.5 nM; with `CC(C)C[C@H]1NC(=O)[C@H](CCCN)NC(=O)[C@H](C(C)C)NC(=O)[C@H](Cc2ccc(-c3ccccc3)cc2)NC(=O)[C@H](C(C)C)NC(=O)[C@H](Cc2c[nH]c3ccccc23)NC(=O)[C@H](CC(=O)O)NC(=O)[C@H](Cc2ccc(OCC(=O)O)cc2)NC(=O)[C@H](CN)NC(=O)CSCC(C(=O)N[C@H](CO)C(=O)NCCCCCCCCCCC(=O)O)NC(=O)[C@H]([C@@H](C)O)NC(=O)[C@H](C(C)C)NC(=O)[C@H](CC2CCCCC2)NC(=O)[C@H](Cc2cnc[nH]2)NC1=O` (stereo partly drawn) [Compound 1123] ({CH2CO}-[Dap]Y(Carboxymethyl)DWV[Bip]V[Orn][dL]H[Cha]VT[ξC][dS][Aun]-OH; thioether N-14), 48.4 nM; with `Cc1cccc(C[C@@H]2NC(=O)[C@H](CC(=O)O)NC(=O)[C@H](Cc3ccc(OCC(=O)O)cc3)NC(=O)[C@H](CCN)NC(=O)CSC[C@@H](C(=O)N[C@@H](CO)C(=O)NCCCCCCCCCCC(=O)O)NC(=O)[C@H](C(C)O)NC(=O)[C@H](C(C)(C)O)NC(=O)[C@H](CC3CCCCC3)NC(=O)[C@H](CCN)NC(=O)[C@@H](CC(C)C)NC(=O)[C@H](CCCN)NC(=O)[C@H](Cc3ccc(O)cc3)NC(=O)[C@H](Cc3ccc(-c4ccccc4)cc3)NC(=O)[C@H](Cc3ccc(C(N)=O)cc3)NC2=O)c1` (stereo partly drawn) [Compound 3725] ({CH2CO}-[Dab]Y(Carboxymethyl)D[Phe(3-Me)][Phe(4-CONH2)][Bip]Y[Orn][dL][Dab][Cha][Val(3-OH)][Thr(3ξ)]CS[Aun]-OH; thioether N-14), 30.5 nM.
As for `Cc1cccc(C[C@@H]2NC(=O)[C@H](CC(=O)O)NC(=O)[C@H](Cc3ccc(OCC(=O)O)cc3)NC(=O)[C@H](C3CC3)NC(=O)CSC[C@@H](C(=O)N[C@@H](CCN)C(=O)NCCCCCCCCCCC(=O)O)NC(=O)[C@H](CO)NC(=O)[C@H](C(C)(C)O)NC(=O)[C@H](CC3CCCCC3)NC(=O)[C@H](CCN)NC(=O)[C@@H](CC(C)C)NC(=O)[C@H](CCCN)NC(=O)[C@H](Cc3ccc(OCC(=O)O)cc3)NC(=O)[C@H](Cc3ccc(-c4ccccc4)cc3)NC(=O)[C@H](Cc3ccc(OCC(=O)O)cc3)NC2=O)c1` [Compound 2211] ({CH2CO}-[Gly(cPr)]Y(Carboxymethyl)D[Phe(3-Me)]Y(Carboxymethyl)[Bip]Y(Carboxymethyl)[Orn][dL][Dab][Cha][Val(3-OH)]SC[Dab][Aun]-OH; thioether N-14), the IC50 was found to be 9 nM.
With `CC(C)C[C@H]1NC(=O)[C@H](CCCN)NC(=O)[C@H](Cc2ccc(C(=O)O)cc2)NC(=O)[C@H](Cc2ccc(-c3ccccc3)cc2)NC(=O)[C@H](Cc2ccc(C(=O)O)cc2)NC(=O)[C@H](Cc2cccc(C(F)(F)F)c2)NC(=O)[C@H](CC(=O)O)NC(=O)[C@H](Cc2ccc(OCC(=O)O)cc2)NC(=O)[C@H](CO)NC(=O)CSC[C@@H](C(=O)N[C@@H](CCN)C(=O)NCCOCCOCC(=O)N[C@@H](CO)C(=O)N[C@@H](CO)C(=O)N[C@@H](CO)C(=O)N[C@@H](CO)C(=O)N[C@@H](CCC(=O)NCCCCCCCCCCCCCCC(=O)O)C(=O)O)NC(=O)[C@H](CO)NC(=O)[C@H](C(C)(C)O)NC(=O)[C@H](CC2CCCCC2)NC(=O)[C@H](CCN)NC1=O` [Compound 3900] ({CH2CO}-SY(Carboxymethyl)D[Phe(3-CF3)][Phe(4-COOH)][Bip][Phe(4-COOH)][Orn][dL][Dab][Cha][Val(3-OH)]SC[Dab][AEEA]SSSSE(NH(CH2)14COOH)-OH; thioether N-14) the figure was 185 nM.
For the molecule `C#CC[C@H](NC(=O)COCCOCCNC(=O)[C@H](CCCN)NC(=O)[C@@H]1CSCC(=O)N[C@@H](Cc2ccncc2)C(=O)N[C@@H](Cc2ccc(OCC(=O)O)cc2)C(=O)N[C@@H](CC(=O)O)C(=O)N[C@@H](Cc2c[nH]c3ccccc23)C(=O)N[C@@H](C(C)C)C(=O)N[C@@H](Cc2ccc(-c3ccccc3)cc2)C(=O)N[C@@H]([C@@H](C)CC)C(=O)N[C@@H](CCCN)C(=O)N[C@H](CC(C)C)C(=O)N[C@@H](CCN)C(=O)N[C@@H](CC(C)C)C(=O)N[C@@H](C(C)C)C(=O)N[C@@H]([C@@H](C)O)C(=O)N1)C(=O)N[C@@H](Cc1c[nH]cn1)C(=O)NCCCCCCCCCCC(=O)O` [Compound 1204] ({CH2CO}-[4Pal]Y(Carboxymethyl)DWV[Bip]I[Orn][dL][Dab]LVTC[Orn][AEEA][Pra]H[Aun]-OH; thioether N-14), the 50% inhibitory concentration (IC50) worked out at 9.2 nM.
For the molecule `CC(C)C[C@H]1NC(=O)[C@H](CCCN)NC(=O)[C@H](Cc2ccc(O)cc2)NC(=O)[C@H](Cc2ccc(-c3ccccc3)cc2)NC(=O)[C@H](C(C)C)NC(=O)[C@H](Cc2cc(F)c(F)cc2F)NC(=O)[C@H](CC(=O)O)NC(=O)[C@H](Cc2ccc(OCC(=O)O)cc2)NC(=O)[C@H](CN)NC(=O)CSC[C@@H](C(=O)N[C@@H](CCN)C(=O)NCCOCCOCC(=O)NCCCCCCCCCCC(=O)O)NC(=O)[C@H](CCCN)NC(=O)[C@H](C(C)C)NC(=O)[C@H](CC2CCCCC2)NC(=O)[C@H](CCN)NC1=O` [Compound 1308] ({CH2CO}-[Dap]Y(Carboxymethyl)D[X9]V[Bip]Y[Orn][dL][Dab][Cha]V[Orn]C[Dab][AEEA][Aun]-OH; thioether N-14), the IC50 turned out to be 59.7 nM.
With `CC(C)C[C@H]1NC(=O)[C@H](CCCN)NC(=O)[C@H](C(C)C)NC(=O)[C@H](Cc2ccc(-c3ccccc3)cc2)NC(=O)[C@H](C(C)C)NC(=O)[C@H](Cc2c[nH]c3ccccc23)NC(=O)[C@H](CC(=O)O)NC(=O)[C@H](Cc2ccc(OCC(=O)O)cc2)NC(=O)[C@H](Cc2ccncc2)NC(=O)CSC[C@@H](C(=O)NCCOCCOCC(=O)NCCCCCCCCCCC(=O)O)NC(=O)[C@H](C(C)O)NC(=O)[C@H](C(C)C)NC(=O)[C@H](CC2CCCCC2)NC(=O)[C@H](CCN)NC1=O` (stereo partly drawn) [Compound 3048] ({CH2CO}-[4Pal]Y(Carboxymethyl)DWV[Bip]V[Orn][dL][Dab][Cha]V[Thr(3ξ)]C[AEEA][Aun]-OH; thioether N-14) the figure was 23.2 nM.
